Row | melting point [°C] | Compound
1 | 77 to 79 | CCCCCc1c(C(C)C)nc(C(C)C)c(CNC)c1-c1ccc(F)cc1
2 | 248 to 254 | O=C(/C=C/c1ccc(O)cc1Cl)CC(=O)/C=C/c1ccc(O)cc1Cl
3 | 210 to 212 | CS(=O)(=O)c1ccc(-c2cnn(-c3cccc(Br)c3)c(=O)c2-c2ccc(F)cc2)cc1
4 | 175 to 176 | Nc1ccc2c3c(cccc13)C(=O)N(CCCCBr)C2=O
5 | 39 to 42 | O=[N+]([O-])c1cc(F)c(Cl)cc1Cl
6 | 88 | ClCn1cc(Cl)c(-c2cc(Cl)cc(Cl)c2)n1
7 | 89 to 93 | ClC[Si](c1ccc(Cl)cc1)(c1ccc(Cl)cc1)c1ccc(Cl)cc1
8 | 69 | COCCOc1ccc(OCC(O)CNCCNC(=O)N2CCOCC2)cc1 (stereo not drawn)
9 | 191 to 192 | O=C(CCl)Nc1ccc2c(c1NC(=O)C1CC1)C(=O)c1ccccc1C2=O
10 | 86 to 88 | O=C(O)CCCCCCCn1nc(-c2ccccc2)c(-c2ccccc2)n1
11 | 133 to 136 | O=S(=O)(C(/C=C/c1ccc(F)cc1)c1c(F)c(F)c(F)c(F)c1F)C(/C=C/c1ccc(F)cc1)c1c(F)c(F)c(F)c(F)c1F (stereo not drawn)
12 | 56.5 to 58 | Clc1cc(Br)c2c(c1)OCCO2
13 | 164 to 165 | CC(CO)Oc1ccc2c(c1)c(-c1cc3cccnc3[nH]1)cn2C (stereo not drawn)
14 | 255 to 257 | Cc1nc2c(N)nc3ccccc3c2n1OC(C)(C)C
15 | 153 to 156 | Clc1c2ccccc2nc2c1cnn2-c1ccccn1
16 | 183 to 184 | O=C(O)C1(C(F)(F)F)NNC2=C1CCCC2 (stereo not drawn)
17 | 83 to 84.5 | COC(=O)NNC(=O)CC(C)(C)C
18 | 36 to 38 | CCOC(=O)C1C2CCC(=O)C21 (stereo not drawn)
19 | 89 to 92 | CCCCCCCN(Cc1ccc(C(C)(C)C)cc1)C(Nc1ccc(F)cc1F)=C1C(=O)COC1=O
20 | 203 to 206 | CC(=O)Nc1cccc2c(OC(C)=O)c(S(=O)(=O)NC(C)(C)C)ccc12

Row | melting point [°C] | Compound
21 | 100 | Cc1cc(CNC(=O)c2cc(-c3ccc(C(C)(C)C)cc3)[nH]n2)ccc1OC(C)(C)C(=O)O
22 | 78 to 80 | CC(C)(CON=Cc1ccccc1Cl)C(=O)O
23 | 130 to 131 | O=C1CCCN1c1ccnn1-c1c(Cl)cc(C(F)(F)F)cc1Cl
24 | 87.5 to 88 | COC(=O)C(Oc1ccc([N+](=O)[O-])cc1)C(C)=O (stereo not drawn)
25 | 110 | Cc1c(Cl)ccc(S(=O)(=O)N(CCc2ccccc2)CC(=O)NCC(=O)O)c1Cl
26 | 122 to 127 | C=CCn1c(-c2cccnc2)nn(CN2CCN(c3cccc4c3OCCO4)CC2)c1=S
27 | 108 to 111 | CC1=NC(SCc2ccccc2)=CC2=CN(C)NN21
28 | 127 to 128 | CCN1C(=O)C(C(N)=O)(c2ccc(Cl)c(Cl)c2)OS1=O (stereo not drawn)
29 | 227 to 230 | CCNC(=O)CCC1CCN(Cc2cnc3cc(NC(=O)c4ccc(-c5ccc(F)cc5)cc4)c(C)cc3c2)CC1
30 | 150 to 152 | O=C(Nc1ccccc1)c1c(C(=S)Nc2ccccc2)cccc1-c1ccccc1
31 | 185 to 189 | CC(=O)Nc1ccc(Br)c2c1CCCC2
32 | 121 to 122 | CCOC(=O)C=Cc1ccc(OC(C)c2nc(-c3ccccc3)oc2C)c(OC)c1 (stereo not drawn)
33 | 106 to 107 | Oc1ccc(Cl)cc1C(O)c1ccc(Cl)cc1 (stereo not drawn)
34 | 148 to 150 | Nc1ccc(N2CC(O)C2)nc1
35 | 67 to 69 | COC(=O)NCC(C)(C)c1ccc(NC(=O)c2ccc(OC)c(OC)c2)cc1
36 | 115 to 117 | CCc1cc2oc(=O)c([N+](=O)[O-])c(O)c2cc1CC
37 | 171 | CN(Cc1ccccn1)C(=S)Nc1ccc(C#N)cc1
38 | 233 to 234 | O=C(O)c1c[nH]c(=S)n1C1Cc2cc(F)c(F)cc2C1
39 | 58 | NCCCCNC(=O)COc1ccc2ccccc2c1
40 | 209 to 211 | Cn1c(=O)oc2c(O)cccc21

Further lines, the compound ahead of its results:

Row | Compound | melting point [°C]
41 | C=C1CC2C(CCC3(C)C(OC(C)=O)CCC23)C2(C)CCC(=O)C=C12 (stereo not drawn) | 138 to 140
42 | C=CCNCc1c(CO)nc2n1-c1ccc(Cl)cc1C(c1ccccc1F)=NC2 | 140
43 | Cc1cc(SC(C)C)c(NC(=O)CCCCCCSc2nc3ccccc3s2)c(SC(C)C)n1 | 74 to 76
44 | CCNC(=O)c1ccc2c(c1)Nc1ccccc1S2 | 150 to 151
45 | CCC1CC2=CCCCC2C2CCC3(C)C(O)CCC3C12 (stereo not drawn) | 155 to 157
46 | Cc1ccccc1-c1cc(C(=O)NC(=N)N)c2ccc(O)cc2n1 | 202 to 208
47 | Cc1c(-c2ccc(OCC(=O)O)cc2)oc(=O)c(Sc2ccccc2)c1O | 194 to 197
48 | O=C1CCCC2=C1C(c1ccc(F)c(Cl)c1)C1=C(CCS1)N2 (stereo not drawn) | > 250
49 | NS(=O)(=O)c1ccc(-n2cccc2-c2ccc(F)cc2)cc1 | 198 to 199
50 | NC(=O)C1CN(CC(=O)Nc2c(Cl)cccc2Cl)CCN1 (stereo not drawn) | 180 to 183
51 | Cc1ccc2c3c(ccc2n1)OC[C@H](CNCC1CCc2sc4ccc(F)cc4c2C1)O3 (stereo partly drawn) | 115 to 118
52 | CN1C(=O)C(N)N=C(c2ccccc2)c2cnccc21 (stereo not drawn) | 109 to 123
53 | CCCc1c2nc(C(=O)OC)cc(Br)c2cc2c(=O)cc(C(=O)OCC)oc12 | 177 to 178
54 | COc1ccc(N2CCOCC2)c2sc(C(=O)NCC(=O)Cc3cccs3)nc12 | 165
55 | CCN(CC)CC1CN(Cc2cc(OC)c(OC)c(OC)c2)CCN1C(=O)C1=Cc2cc(OC)c(OC)cc2CCC1 (stereo not drawn) | 157 to 160
56 | COC(=O)c1ccc(S(C)(=O)=O)c(-c2ccon2)c1Cl | 145 to 147
57 | CCN(CC)c1ccc2c(c1)Cc1c-2[nH]c2ccccc12 | 204 to 206

Row | Compound | melting point [°C]
58 | Cc1c(SCCCSc2ccc3ncc([N+](=O)[O-])n3n2)ccnc1CSc1ncccn1 | 143 to 147
59 | O=C(O)C1(S(=O)(=O)c2ccc(OCC#CCN3CCOCC3)cc2)CCN(Cc2ccc(Br)cc2)CC1 | 198
60 | CN(C)C(=O)Cc1nc(-c2ccncc2)nc2c1c1ccc(Cl)cc1n2C | 231 to 232
61 | CCCC(=O)NCCCCn1c(CC)nc2c(N)nc3ccccc3c21 | 148 to 149
62 | Cc1nc(N2CCCC2)sc1C(=O)c1ccc(Cl)c([N+](=O)[O-])c1 | 168 to 171
63 | COc1cc(-c2cncn2-c2ccc(S(C)(=O)=O)cc2)ccc1C | 174 to 175
64 | CCOP(=O)(OCC)SCc1ccc(-c2nc(SC)c3cc(Br)ccc3n2)cc1 | 126 to 127
65 | NC1c2ccccc2CC2CCCCC21 (stereo not drawn) | 37 to 39
66 | Oc1ccc(I)nc1Cl | 142 to 143
67 | CCc1nn2ccc3oc(C)cc3c2c1CO | 127 to 129
68 | Cc1c(N2C[C@@H](NC(=O)C(F)(F)F)C(C)(C)C2)c(F)c(N)c2c(=O)c(C(=O)O)cn(C3CC3)c12 | 254 to 255
69 | CC(c1oc2ccccc2c(=O)c1-c1cccc(F)c1)n1nc(-c2cccc(C(=O)N3CCOCC3)c2)c2c(N)ncnc21 (stereo not drawn) | 104 to 106
70 | O=C1Nc2ccc(Br)cc2C12CCNCC2 | 256 to 258
71 | N#Cc1ccc(-c2ccc(Cl)cc2)nc1Cl | 179 to 181
72 | COC(=O)c1nc(-c2ccc(Cl)c(F)c2F)nc(N)c1Br | 175 to 178
73 | Cc1ccc(C(=O)C2=C(O)C(=O)N(c3ccc(C)nn3)C2c2ccc(OC(F)(F)F)cc2)cc1 (stereo not drawn) | 215

Reference: a melting point compilation (Tetko et al.; mined from patent text by program, amines drawn as free bases though some values may be those of a salt)
